Reference: ChEMBL document CHEMBL3632519, “Withanolides and Sucrose Esters from Physalis neomexicana” (J Nat Prod, 2015)

Tests used:
MDA-MB-231 = test: Cytotoxicity against human MDA-MB-231 cells by MTT assay; type: functional, cell-based
MCF7 = test: Cytotoxicity against human MCF7 cells by MTT assay; type: functional, cell-based

| SMILES | IC50 (MDA-MB-231) [nM] | IC50 (MCF7) [nM] |
| --- | --- | --- |
| CC1=C(CO)C(=O)O[C@@H]([C@@H](C)[C@H]2CC[C@H]3[C@@H]4C[C@H]5O[C@]56[C@@H](O)C=CC(=O)[C@]6(C)[C@H]4CC[C@]23C)C1 [WITHAFERIN A] | 500 |  |
| CC(=O)O[C@H]1C[C@H]([C@@](C)(O)[C@@H]2C[C@H](C)[C@@H](C)C(=O)O2)[C@@]2(C)CC[C@H]3[C@@H](C[C@H]4O[C@]45CC=CC(=O)[C@]35C)[C@@]12O | 1700 | 6300 |
| CC1=C(C)C(=O)O[C@@H]([C@@H](C)[C@H]2CC[C@H]3[C@@H]4C[C@H]5O[C@]56[C@@H](O)C=CC(=O)[C@]6(CO)[C@H]4CC[C@]23C)C1 [WITHALONGOLIDE B] | 200 | 800 |
